Laboratory results as given in US20160367497A1, “METHODS AND COMPOSITIONS FOR TREATING NEUROPATHIES” (Washington University, priority 2007, published 2016).

Columns and labels:
[1] = test system: DRG neuronal explant cultures; experiment: in vitro Wallerian degeneration assay, DRG explant neurite transection; format: cell-based, mouse
Description: To identify the mechanism of delayed axonal degeneration mediated by the Wlds protein, we employed an in-vitro Wallerian degeneration model. Primary DRG explant neurons were infected with lentivirus expressing the appropriate proteins, and axons were injured by either removal of the neuronal cell body (transection) or growth in vincristine (toxic).
Mouse DRG explants from E12.5 embryos were cultured in the presence of 1 nM nerve growth factor. Non-neuronal cells were removed from the cultures by adding 5-fluorouracil to the culture medium. Transection of neurites was performed at 10-20 DIV using an 18-gauge needle to remove the neuronal cell bodies. Incubation with β-nicotinamide adenine dinucleotide (Sigma) or Sirtinol (Calbiochem) was performed using conditions indicated in the text or figures.
Quantitative analysis of axonal degeneration was performed as previously described (Zhai, et al., Neuron 39:217-25, 2003). Briefly, the cultures were examined using phase contrast microscopy at the indicated times. Axons with a fragmented, non-refractile appearance were designated as “degenerated.” At each time point, at least 200 singly distinguishable axons were blindly scored from several randomly taken images of each culture. Each condition was tested in triplicate explants in each experiment. Results were obtained from 2-4 independent experiments for each condition. Statistical analysis was performed by Student's T test. For calculations of neurite-covered area, digitally captured images from quadruplicate samples of two independent experiments were analyzed using analysis 3.1 software (Soft Imaging System, Lakewood, Colo.).
Cell culture, in vitro axotomy, and quantification of axonal degeneration. Mouse DRG explants from E12.5 embryos were cultured in the DMEM containing 10% FCS and 1 nM nerve growth factor. Non-neuronal cells were removed from the cultures by adding 5-fluorouracil to the culture media. Transection of neurites was performed at 14-21 DIV using an 18-gauge needle to remove the neuronal cell bodies. Lentiviral expression vectors were generated. Lentiviral infection was performed 3-7 days prior to axonal transection for 24 hr. Quantitative analysis of neurite degeneration was performed.

AMPK = AMPK phosphorylation in Neuro2a cells (phospho-specific western blot); format: cell-based; conditions: for effect on resveratrol-mediated activation of AMPK (AMPK and ACC phosphorylation): resveratrol 10 μM, 2 h, sirtinol 10 μM, splitomycin 10 μM, nicotinamide 10 mM, STO 609 2.5 μM
Description: FIG. 10A-D illustrates resveratrol activation of AMP kinase in Neuro2a cells. Neuro2a cells were switched to serum-starvation medium (medium containing 0.2% FCS) and treated with DMSO (vehicle control), resveratrol (10 μM) or 5-aminoimidazole-4-carboxamide-1-β-D-ribofuranoside (AICAR) (1 mM). […] Very low levels of phosphorylated AMPK and ACC were detected in DMSO treated control cells at all time points tested. (C) Densitometric analysis of changes in phosphorylated AMPK and (D) phosphorylated ACC under different conditions is shown.
Cell culture and Reagents. Neuro2 cells obtained from ATCC were grown in MEM with 1.5 g/L sodium bicarbonate, 0.1 mM nonessential amino acids, 0.1 mM sodium pyruvate, 2 mM L-glutamine with 10% FCS. For differentiation, cells were switched to serum-starvation medium (containing 0.2% FCS). For neurite outgrowth measurements, experiments were done in quadruplicate and 100 neurites per well were randomly measured using the Metamorph software. Dorsal root ganglia sensory and cortical neurons were established from E13.5 mouse embryos, maintained in neurobasal medium supplemented with B27 (and NGF for DRG neurons) and infected with lentiviruses as described (Araki et al., 2004, Science 305:1010-1013; Hawley et al., 2005, Cell Metab 2:21-23). Resveratrol was a gift from Sirtris Pharmaceuticals (Cambridge Mass.) and AICAR was obtained from Toronto Research (North York, Canada). Splitomycin and Compound C were purchased from Biomol (Plymouth Meeting, Pa.) and Calbiochem (San Diego, Calif.). Sirtinol and nicotinamide were purchased from Sigma (Saint Louis, Mo.)
Plasmids and viruses. The dominant negative (dnAMPK) and constitutively active (caAMPK) plasmids were gifts from Russell Jones (University of Pennsylvania, Philadelphia Pa.), and pCXN-Cre was a gift of Inder Verma (Salk Institute, San Diego, Calif.). All constructs were subcloned into the lentiviral shuttle vector FCIV and verified by nucleotide sequence analysis. Viruses were prepared as previously described (Araki et al., 2004, Science 305:1010-1013). Protein and mRNA analysis. Immunoprecipitations and western blot analysis were performed by standard methods using antibodies directed against total AMPK, phosphorylated AMPK, total ACC or phosphorylated ACC that were obtained from Cell Signaling Technology (Beverley, Mass.). The phospho-AMPK antibody detects endogenous AMPK α1 and α2 when phosphorylated at threonine 172. The LKB1 antibody was purchased from Upstate (Lake Placid, N.Y.). Quantitative RT-PCR analysis was performed using Sybr-Green methodology on a model 7700 instrument (Applied Biosystems) as previously described (Araki et al., 2004, Science 305:1010-1013). Primer sequences were those used in previous studies (Motoshima, et al., 2006, J Physiol 574:63-71).
To explore the role of polyphenols, in particular, of resveratrol, we tested whether resveratrol altered the activity of AMPK in neuronal cells. Neuro2a neuroblastoma cells were treated with resveratrol (10 μM) and AMPK activation was examined using phospho-AMPK specific antibodies. […] To confirm that AMPK activation by resveratrol results in typical AMPK-mediated downstream responses, we monitored phosphorylation of ACC (acetyl Co-A carboxylase), a primary target of activated AMPK. […] To examine a potential mechanism of resveratrol-mediated AMPK activation, we measured cellular ATP levels as a decreased ATP:AMP ratio increases the phosphorylation of AMPK. ATP levels were monitored using a luciferase-based assay in neuro2A cells treated with resveratrol or Oligomycin, an inhibitor of mitochondrial oxidative phosphorylation and therefore ATP production. While the ATP concentration dropped from 5.874 μM in DMSO-treated cells (control) to 0.976 μM in Oligomycin treated cells within 2 hr, the ATP concentration in resveratrol-treated Neuro2a cells was not altered from control either at 2 hr (6.33 μM) or 24 hr (6.42 μM).

Row | SMILES | effect on resveratrol-mediated activation of AMPK (AMPK and ACC phosphorylation) (AMPK) | further results
1 | NC(=O)c1cccnc1 [Nam, nicotinamide] | None of the SIRT1 inhibitors attenuated | neurite protection after transection ([1]; 1 mM applied for 24 hours before neurite transection): had no effect
2 | O=C(O)c1ccc2c3c1cccc3c(=O)n1c3ccccc3nc21 [STO 609] | had no effect | –
3 | CC(NC(=O)c1ccccc1/N=C/c1c(O)ccc2ccccc12)c1ccccc1 (centres unmarked) [Sirtinol] | None of the SIRT1 inhibitors attenuated | effect on NAD-dependent axonal protection (NDAP) ([1]; neurons cultured in 1 mM NAD, Sirtinol 100 μM, 3AB 20 mM or siRNA lentivirus, 12 to 72 hr after transection): effectively blocked NDAP
4 | Oc1ccc(C=Cc2cc(O)cc(O)c2)cc1 [resveratrol] | – | axonal degradation after axotomy ([1]; 10~100 μM, treated prior to axotomy): decrease in axonal degradation that was comparable to that obtained using NAD; AMPK phosphorylation (AMPK; resveratrol 10 μM or AICAR 1 mM, 2 h up to 72 h): robust increase in AMPK Thr172 phosphorylation
5 | O=C1CCc2c(ccc3ccccc23)O1 [splitomycin] | None of the SIRT1 inhibitors attenuated | –
